# Assay results published in article PMC12627933, “A First-In-Human Study of the SUMOylation Inhibitor Subasumstat in Patients with Advanced/Metastatic Solid Tumors or Relapsed/Refractory Hematologic Malignancies” (Cancer Research Communications, 2025).
# Test: Safety: treatment-emergent adverse events (NCI CTCAE v5.0; CRS per ASTCT), phase I/II study NCT03648372
# Assay type: in vivo
# Settings: Phase I (n = 84)
# Protocol: This study comprised two parts: a phase I dose escalation and a phase II dose expansion (Fig. 1). In the dose-escalation phase, patients were enrolled to receive subasumstat intravenously as a 1-hour (±10 minutes) infusion on days 1, 4, 8, and 11 of a 21-day cycle (biweekly schedule). […] Dose escalation was based on cohort with an adaptive design using Bayesian logistic regression modeling with overdose control. The starting dose of subasumstat was based on Good Laboratory Practice animal toxicity studies and supported by the estimation of a minimum anticipated biologically effective level. A detailed description of dose-limiting toxicities (DLT) is presented in the Supplementary Methods.
# The phase II dose-expansion portion enrolled patients to receive the recommended phase II dose (RP2D) determined in phase I, with each cohort assessed separately using an adaptive two-stage design for a single proportion (see Supplementary Methods). For stage 1, each cohort was analyzed when a prespecified number of patients were enrolled and had the potential to have at least one posttreatment scan [i.e., after the first disease assessment, 2 months from cycle 1 day 1 (C1D1)]. If the prespecified minimal response rate was not achieved in the first stage for a given cohort, that cohort would be closed to enrollment. […] The final analysis of the primary endpoints for each cohort would take place when all ongoing patients had the opportunity to complete the 6-month disease assessment. Across both phases, patients received subasumstat for up to 1 year or until confirmed disease progression, unacceptable toxicity, if any withdrawal criterion from the study was met, or if discontinuation of subasumstat occurred.
# The occurrence of DLTs was assessed during cycle 1 (DLTs are described in the Supplementary Methods). Treatment-emergent adverse events (TEAE) were graded according to NCI Common Terminology Criteria for Adverse Events version 5.0, except for cytokine release syndrome (CRS), which was graded according to the American Society for Transplantation and Cellular Therapy Consensus Grading for CRS ([20]).
# It was anticipated that approximately 70 DLT-evaluable patients would be enrolled for dose escalation. The safety analysis set included all patients who received at least one dose, even if incomplete, of subasumstat. […] The overall response rate (ORR) was defined as the proportion of patients who achieved complete response and partial response (PR) during the study. The disease control rate (DCR) was defined as the proportion of patients who achieved […] as per RECIST v1.1 for solid tumors or Lugano classification for lymphomas. […] Progression-free survival was summarized descriptively using the Kaplan–Meier method.
smiles,measurement,value
Cc1sc(C(=O)c2cncnc2N[C@@H]2C[C@H](COS(N)(=O)=O)[C@@H](O)C2)cc1[C@@H]1NCCc2ccc(Cl)cc21 [subasumstat],AESI (adverse event of special interest),9 (10.7) n (%)
same,AESI related to subasumstat,9 (10.7) n (%)
same,AESI: CRS,9 (10.7) n (%)
same,Grade ≥3 TEAE: Abdominal pain,4 (4.8) n (%)
same,Grade ≥3 TEAE: Acute kidney injury,2 (2.4) n (%)
same,Grade ≥3 TEAE: Anemia,9 (10.7) n (%)
same,Grade ≥3 TEAE: Aspartate aminotransferase increased,2 (2.4) n (%)
same,Grade ≥3 TEAE: Blood bilirubin increased,2 (2.4) n (%)
same,Grade ≥3 TEAE: Dyspnea,4 (4.8) n (%)
same,Grade ≥3 TEAE: Fatigue,5 (6.0) n (%)
same,Grade ≥3 TEAE: Hyperbilirubinemia,0 n (%)
same,Grade ≥3 TEAE: Hypertension,1 (1.2) n (%)
same,Grade ≥3 TEAE: Hypokalemia,7 (8.3) n (%)
same,Grade ≥3 TEAE: Hypomagnesemia,2 (2.4) n (%)
same,Grade ≥3 TEAE: Hypophosphatemia,2 (2.4) n (%)
same,Grade ≥3 TEAE: Lymphocyte count decreased,5 (6.0) n (%)
same,Grade ≥3 TEAE: Lymphopenia,1 (1.2) n (%)
same,Grade ≥3 TEAE: Muscular weakness,0 n (%)
same,Grade ≥3 TEAE: Nausea,2 (2.4) n (%)
same,Grade ≥3 TEAE: Neutropenia,0 n (%)
same,Grade ≥3 TEAE: Platelet count increased,1 (1.2) n (%)
same,Grade ≥3 TEAE: Pleural effusion,2 (2.4) n (%)
same,Grade ≥3 TEAE: Pneumonia,1 (1.2) n (%)
same,Grade ≥3 TEAE: Pneumonitis,2 (2.4) n (%)
same,Grade ≥3 TEAE: Pyrexia,2 (2.4) n (%)
same,Grade ≥3 TEAE: Small intestinal obstruction,4 (4.8) n (%)
same,Grade ≥3 TEAE: Thrombocytopenia,1 (1.2) n (%)
same,Grade ≥3 TEAE: Vomiting,4 (4.8) n (%)
same,Grade ≥3 TEAEs,48 (57.1) n (%)
same,Grade ≥3 TEAEs related to subasumstat,18 (21.4) n (%)
same,Grade ≥3 subasumstat-related TEAE: Anemia,1 (1.2) n (%)
same,Grade ≥3 subasumstat-related TEAE: Aspartate aminotransferase increased,2 (2.4) n (%)
same,Grade ≥3 subasumstat-related TEAE: Hypokalemia,2 (2.4) n (%)
same,Grade ≥3 subasumstat-related TEAE: Lymphocyte count decreased,4 (4.8) n (%)
same,Grade ≥3 subasumstat-related TEAE: Muscular weakness,0 n (%)
same,Grade ≥3 subasumstat-related TEAE: Neutropenia,0 n (%)
same,Grade ≥3 subasumstat-related TEAE: Platelet count increased,1 (1.2) n (%)
same,Grade ≥3 subasumstat-related TEAE: Pneumonitis,2 (2.4) n (%)
same,Grade ≥3 subasumstat-related TEAE: Thrombocytopenia,1 (1.2) n (%)
same,On-study deaths,10 (11.9) n (%)
same,Patients with at least one grade ≥3 TEAE,48 (57.1) n (%)
same,Patients with at least one grade ≥3 subasumstat-related TEAE,18 (21.4) n (%)
same,Serious adverse events,37 (44.0) n (%)
same,Serious adverse events related to subasumstat,7 (8.3) n (%)
same,Subasumstat-related TEAE: Anemia,4 (4.8) n (%)
same,Subasumstat-related TEAE: CRS,9 (10.7) n (%)
same,Subasumstat-related TEAE: Chills,17 (20.2) n (%)
same,Subasumstat-related TEAE: Decreased appetite,10 (11.9) n (%)
same,Subasumstat-related TEAE: Diarrhea,15 (17.9) n (%)
same,Subasumstat-related TEAE: Dyspnea,4 (4.8) n (%)
same,Subasumstat-related TEAE: Fatigue,27 (32.1) n (%)
same,Subasumstat-related TEAE: Headache,21 (25.0) n (%)
same,Subasumstat-related TEAE: Hypokalemia,7 (8.3) n (%)
same,Subasumstat-related TEAE: IRR,5 (6.0) n (%)
same,Subasumstat-related TEAE: Myalgia,6 (7.1) n (%)
same,Subasumstat-related TEAE: Nausea,29 (34.5) n (%)
same,Subasumstat-related TEAE: Pyrexia,23 (27.4) n (%)
same,Subasumstat-related TEAE: Vomiting,13 (15.5) n (%)
same,TEAE: Abdominal distension,11 (13.1) n (%)
same,TEAE: Abdominal pain,17 (20.2) n (%)
same,TEAE: Anemia,12 (14.3) n (%)
same,TEAE: Arthralgia,12 (14.3) n (%)
same,TEAE: Back pain,12 (14.3) n (%)
same,TEAE: CRS,9 (10.7) n (%)
same,TEAE: Chills,20 (23.8) n (%)
same,TEAE: Constipation,14 (16.7) n (%)
same,TEAE: Decreased appetite,26 (31.0) n (%)
same,TEAE: Dehydration,10 (11.9) n (%)
same,TEAE: Diarrhea,29 (34.5) n (%)
